Experimental data reported in patent US7008905B2, “Method of combating undesired plant growth on cereals” (BASF Aktiengesellschaft, priority 2000, dated 2006).

Tests used:
Format in all cases: in vivo
[1] = system: Alopecurus myosuroides; assay: Pre-emergence test, weed control; conditions: 3 weeks after treatment, rating 0-100 (100=death), Table 3
Protocol: (§1) The pre-emergence tests involve spraying a liquid formulation of the compound onto the soil in which the seeds of the plant species mentioned above has recently been sown.
(§2) The soil used in the tests is a prepared horticultural loam. The formulations used in the tests are prepared from solutions of the test compounds in acetone containing 0.4% by weight of an alkylphenol/ethylene oxide condensate available under the trade mark TRITON X-155.
(§3) In these tests untreated sown soil is used as control. The herbicidal effects of the test compounds are assessed visually three weeks after spraying the soil and are recorded an a 0 to 100 scale. A rating 0 indicates growth as untreated control, a rating 100 indicates death. An increase of 10 unit an the linear scale approximates to a 10% increase in the level of effect. The results of the assessment are set out in Tables 1 to 4.

[2] = system: Apera spica-venti; assay: Pre-emergence test, weed control; conditions: 3 weeks after treatment, rating 0-100 (100=death), Table 3
Protocol: as §1, §2, §3

[3] = system: Galium aparine; assay: Pre-emergence test, weed control; conditions: 3 weeks after treatment, rating 0-100 (100=death), Table 3
Protocol: as §1, §2, §3

[4] = system: Lamium purpureum; assay: Pre-emergence test, weed control; conditions: 3 weeks after treatment, rating 0-100 (100=death), Table 3
Protocol: as §1, §2, §3

[5] = system: Lolium perenne; assay: Pre-emergence test, weed control; conditions: 3 weeks after treatment, rating 0-100 (100=death), Table 3
Protocol: as §1, §2, §3

[6] = system: Matricaria inodora; assay: Pre-emergence test, weed control; conditions: 3 weeks after treatment, rating 0-100 (100=death), Table 3
Protocol: as §1, §2, §3

[7] = system: Poa annua; assay: Pre-emergence test, weed control; conditions: 3 weeks after treatment, rating 0-100 (100=death), Table 3
Protocol: as §1, §2, §3

[8] = system: Setaria viridis; assay: Pre-emergence test, weed control; conditions: 3 weeks after treatment, rating 0-100 (100=death), Table 3
Protocol: as §1, §2, §3

[9] = system: Stellaria media; assay: Pre-emergence test, weed control; conditions: 3 weeks after treatment, rating 0-100 (100=death), Table 3
Protocol: as §1, §2, §3

[10] = system: Veronica persica; assay: Pre-emergence test, weed control; conditions: 3 weeks after treatment, rating 0-100 (100=death), Table 3
Protocol: as §1, §2, §3

[11] = system: PAPRH; assay: Pre-emergence test, weed control; conditions: 3 weeks after treatment, rating 0-100 (100=death), Table 3
Protocol: as §1, §2
as §3, with “These acetone solutions are diluted with water and the resulting formulations applied at dosage levels corresponding to 15 g, 30 g, 60 g, 120 g or 240 g of active material per hectare in a volume equivalent to 900 liters per hectare. In” for “In”

[12] = system: VIOAR; assay: Pre-emergence test, weed control; conditions: 3 weeks after treatment, rating 0-100 (100=death), Table 3
Protocol: as §1, §2
as §3, with “These acetone solutions are diluted with water and the resulting formulations applied at dosage levels corresponding to 15 g, 30 g, 60 g, 120 g or 240 g of active material per hectare in a volume equivalent to 900 liters per hectare. In” for “In”

[13] = system: Triticum aestivum variety “Kanzler”; assay: Pre-emergence test, selectivity; conditions: 3 weeks after treatment, rating 0-100 (100=death), Table 4
Protocol: as §1, §2
as §3, with “These acetone solutions are diluted with water and the resulting formulations applied at dosage levels corresponding to 15 g, 30 g, 60 g, 120 g or 240 g of active material per hectare in a volume equivalent to 900 liters per hectare. In” for “In”

[14] = system: Triticum aestivum variety “Monopol”; assay: Pre-emergence test, selectivity; conditions: 3 weeks after treatment, rating 0-100 (100=death), Table 4
Protocol: as §1, §2
as §3, with “These acetone solutions are diluted with water and the resulting formulations applied at dosage levels corresponding to 15 g, 30 g, 60 g, 120 g or 240 g of active material per hectare in a volume equivalent to 900 liters per hectare. In” for “In”

[15] = system: wheat; assay: Pre-emergence test, tolerance in wheat; conditions: in vivo
Protocol: as §1, §2
as §3, with “These acetone solutions are diluted with water and the resulting formulations applied at dosage levels corresponding to 15 g, 30 g, 60 g, 120 g or 240 g of active material per hectare in a volume equivalent to 900 liters per hectare. In” for “In”

CSc1cc(Oc2ccnc(Cl)c2)nc(-c2ccc(C(F)(F)F)cc2)n1 [REF-7]
ALOMY weed control rating ([1]; 0.030 kg/ha): 10
ALOMY weed control rating ([1]; 0.060 kg/ha): 35
ALOMY weed control rating ([1]; 0.120 kg/ha): 65
ALOMY weed control rating ([1]; 0.240 kg/ha): 90
APESV weed control rating ([2]; 0.030 kg/ha): 100
APESV weed control rating ([2]; 0.060 kg/ha): 100
APESV weed control rating ([2]; 0.120 kg/ha): 100
APESV weed control rating ([2]; 0.240 kg/ha): 100
GALAP weed control rating ([3]; 0.120 kg/ha): 65
GALAP weed control rating ([3]; 0.240 kg/ha): 92
LAMPU weed control rating ([4]; 0.030 kg/ha): 30
LAMPU weed control rating ([4]; 0.060 kg/ha): 90
LAMPU weed control rating ([4]; 0.120 kg/ha): 93
LAMPU weed control rating ([4]; 0.240 kg/ha): 100
LOLPE weed control rating ([5]; 0.030 kg/ha): 75
LOLPE weed control rating ([5]; 0.060 kg/ha): 90
LOLPE weed control rating ([5]; 0.120 kg/ha): 97
LOLPE weed control rating ([5]; 0.240 kg/ha): 99
MATIN weed control rating ([6]; 0.030 kg/ha): 90
MATIN weed control rating ([6]; 0.060 kg/ha): 100
MATIN weed control rating ([6]; 0.120 kg/ha): 100
MATIN weed control rating ([6]; 0.240 kg/ha): 100
POAAN weed control rating ([7]; 0.030 kg/ha): 95
POAAN weed control rating ([7]; 0.060 kg/ha): 95
POAAN weed control rating ([7]; 0.120 kg/ha): 100
POAAN weed control rating ([7]; 0.240 kg/ha): 100
SETVI weed control rating ([8]; 0.030 kg/ha): 35
SETVI weed control rating ([8]; 0.060 kg/ha): 85
SETVI weed control rating ([8]; 0.120 kg/ha): 93
SETVI weed control rating ([8]; 0.240 kg/ha): 100
STEME weed control rating ([9]; 0.030 kg/ha): 25
STEME weed control rating ([9]; 0.060 kg/ha): 98
STEME weed control rating ([9]; 0.120 kg/ha): 98
STEME weed control rating ([9]; 0.240 kg/ha): 100
VERPE weed control rating ([10]; 0.030 kg/ha): 70
VERPE weed control rating ([10]; 0.060 kg/ha): 90
VERPE weed control rating ([10]; 0.120 kg/ha): 99
VERPE weed control rating ([10]; 0.240 kg/ha): 100
PAPRH weed control rating ([11]; 0.030 kg/ha): 95
PAPRH weed control rating ([11]; 0.060 kg/ha): 100
PAPRH weed control rating ([11]; 0.120 kg/ha): 100
PAPRH weed control rating ([11]; 0.240 kg/ha): 100
VIOAR weed control rating ([12]; 0.030 kg/ha): 98
VIOAR weed control rating ([12]; 0.060 kg/ha): 99
VIOAR weed control rating ([12]; 0.120 kg/ha): 99
VIOAR weed control rating ([12]; 0.240 kg/ha): 99
TRZAWK rating (Selectivity) ([13]; 0.030 kg/ha): 2
TRZAWK rating (Selectivity) ([13]; 0.060 kg/ha): 5
TRZAWK rating (Selectivity) ([13]; 0.120 kg/ha): 5
TRZAWK rating (Selectivity) ([13]; 0.240 kg/ha): 18
TRZAWM rating (Selectivity) ([14]; 0.030 kg/ha): 2
TRZAWM rating (Selectivity) ([14]; 0.060 kg/ha): 5
TRZAWM rating (Selectivity) ([14]; 0.120 kg/ha): 5
TRZAWM rating (Selectivity) ([14]; 0.240 kg/ha): 10
maximum tolerated dose in wheat / dose at which sufficiently selective in wheat [15]: 240 g/ha
